This note sets out measurements from patent US20250213546A1, “TREATING CANCER WITH SMALL MOLECULES THAT INHIBIT ACSS-2” (DREXEL UNIVERSITY, priority 2022, published 2025).

Structures are written as SMILES. Read-outs that look alike come from different tables or passages of the source.

Data set [1] relates to MDA-MB-231BR cells. Briefly: Clonogenicity assay. The class given is cell-based. As to conditions: after treatment. The protocol:
Triple-negative brain trophic cells MDA-MB-231BR (Center for Cancer Research, National Cancer Institute) were cultured with 10% fetal bovine serum (FBS), 5% 10,000 Units/mL Penicillin-10,000 μg/mL Streptomycin, and 5% 200 mM L-Glutamine. […] For crystal violet staining, 5×10^4 cells were plated in to a 6-well plate and subjected to the treatments as described in the individual figures and then stained with 0.5% crystal violet prepared in a 1:1 methanol-water solution followed by dH2O washes.
To assess clonogenic survival, cells were cultured and detached in their respective growth media, then counted using a hemocytometer. 1,000 cells were plated in triplicate in 6-well plates in their respective growth media and allowed to form colonies. Cells were grown for 14 days. Upon conclusion of growth period, colonies were stained with crystal violet. Colony numbers were quantified based on number of colonies with >40 cells. For clonogenic survival based on drug exposure, 100,000 cells were plated in a 6-well plate, then 24 hours later treated with noted concentration of drug for 48 hours. After 48 hours, cells in each concentration condition were lifted, counted, and plated per the described clonogenic survival protocol and allowed to grow for noted length of time in noted growth media. […] Colony numbers were quantified based on number of colonies with >40 cells.

Data set [2] concerns 4T1-BR. Kind of data set: Ex vivo BCBM mouse brain slice model, 4T1-BR. As to conditions: bioluminescence. The class given is cell-based. The protocol: (§1) Ex vivo brain slice model. Organotypic hippocampal cultures were prepared as described previously (PMID: 34633392). Briefly, adult mice (6-8 week) or mice after 12 days following intracranial injection were decapitated and their brains rapidly removed into ice-cold (4° C.) sucrose-aCSF composed of the following (in mM): 280 sucrose, 5 KCl, 2 MgCl2, 1 CaCl2, 20 glucose, 10 HEPES, 5 Na+-ascorbate, 3 thiourea, 2 Na+-pyruvate; pH=7.3. Brains were blocked with a sharp scalpel and sliced into 250 μm sections using a McIlwain-type tissue chopper (Vibrotome inc). Four to six slices were placed onto each 0.4 μm Millicell tissue culture insert (Millipore) in six-well plates, 1 ml of medium containing the following: Neurobasal medium A (Gibco), 2% Gem21-Neuroplex supplement (Gemini), 1% N2 supplement (Gibco), 1% glutamine (Invitrogen), 0.5% glucose, 10 U/ml penicillin, and 100 μg/ml streptomycin (Invitrogen), placed underneath each insert. One-third to one half of the media was changed every 2 d. Tumor growth was monitored via bioluminescence imaging on the IVIS 200 system (Perkin Elmer) and results analyzed using Living Image software (Caliper Life Sciences, Waltham, MA, USA). […] Tissues were incubated at 37° C., 5% CO2 for 4 hours and absorbance at 490 nm was measured with Tecan Spark Microplate reader.

The test system of data set [3] is MDA-MB-231-BR. Briefly: Ex vivo BCBM mouse brain slice model, MDA-MB-231-BR. It is filed as cell-based. As to conditions: bioluminescence. How it is done:
as §1

Data set [4] concerns FASN. Briefly: FASN expression (immunoblot). As to conditions: BCBM cells. It is filed as cell-based, human. How it is done: ACSS-2 provides Acetyl-CoA for numerous metabolic processes vital for cancer proliferation. The human fatty acid synthase (FASN) is essential for BCBM growth and survival (FIG. 13A), and hACSS-2 does regulate FASN protein expression levels BCBM cells (FIG. 13B).
ACSS2 inhibitors on levels of lipid droplet storage. Briefly, cell lysates from 1-5×10^6 cells were prepared in radioimmune precipitation assay buffer (150 mM NaCl, 1% NP40, 0.5% DOC, 50 mM Tris HCL at pH 8, 0.1% SDS, 10% glycerol, 5 mM EDTA, 20 mM NaF, and 1 mM Na3 VO4) supplemented with 1 μg/ml each of pepstatin, leupeptin, aprotinin, and 200 μg/ml PMSF. Lysates were cleared by centrifugation at 16,000×g for 15 minutes at 4° C. and analyzed by SDS-PAGE and autoradiography with chemiluminescence. Proteins were analyzed by immunoblotting using primary antibodies against Fatty Acid Synthase (FASN) (Cell Signaling) and beta-Tubulin (Cell Signaling) (FIG. 16A).
Background: In western blotting, separated proteins are transferred to a membrane and probed.

Data set [5] addresses hACSS-2 (Homo sapiens (Human), UniProt Q9NR19). Kind of data set: Surface plasmon resonance (SPR) binding to immobilized hACSS-2. How it is done:
SPR characterization. All binding assays were performed on a ProteOn XPR36 SPR Protein Interaction Array System (Bio-Rad Laboratories, Hercules, CA, USA). The instrument temperature was set at 25° C. for all kinetic analyses. ProteOn GLH sensor chips were preconditioned with two short pulses each (10 s) of 50 mM NaOH, 100 mM HCl, and 0.5% sodium dodecyl […]. Then the system was equilibrated with running buffer (1×PBS pH 7.4, 3% DMSO and 0.005% polysorbate 20). The surface of a GLH sensor chip was activated with a 1:100 dilution of a 1:1 mixture of 1-ethyl-3-(3-dimethylaminopropyl) carbodiimide hydrochloride (0.2 M) and sulfo-N-hydroxysuccinimide (0.05 M). […] Then, after unreacted protein had been washed out, excess active ester groups on the sensor surface were capped by a 5 min injection of 1M ethanolamine HCl (pH 8.0) at a flow rate of 5 μL/min. A reference surface was similarly created by immobilizing a nonspecific protein (IgG b12 anti-HIV-1 gp120; was obtained through the NIH AIDS Reagent Program, Division of AIDS, NIAID, NIH: Anti-HIV-1 gp120 Monoclonal (IgG1 b12) from Dr. Dennis Burton and Carlos Barbas) and was used as a background to correct nonspecific binding. Serial dilutions of hACSS-2 inhibitors were then prepared in the running buffer and injected at a flow rate of 100 μL/min, for a 50 s association phase, followed by up to a 5 min dissociation phase using the “one-shot kinetics” capability of the ProteOn instrument. Data were analyzed using the ProteOn Manager Software version 3.0 (Bio-Rad). The responses from the reference flow cell were subtracted to account for the nonspecific binding and injection artifacts. Experimental data were fitted to a simple 1:1 binding model. Experiments were performed in triplicate to detect kinetic and equilibrium dissociation constants (KD).
Overproduction of hACSS-2 was achieved using a prokaryotic expression system. […] The bacterial expressions were then spun down, the supernatant discarded, and the pellets resuspended. After the cells were lysed via sonication, the sample was subjected to ultracentrifugation, and the clarified lysate was applied to a Talon cobalt resin affinity column (Clonetech Laboratories, Mountain View, CA). The bound protein was eluted from the column using 1×PBS pH 7.4 with 0.3 M imidazole, then dialyzed overnight into 20 mM Tris-HCl pH 8.0, concentrated to 10 mg/mL, aliquoted, and stored at −80° C.
Background: SPR reads the build-up and loss of mass on a sensor chip optically.

Data set [6] is described as follows: Human liver microsome stability. It is filed as in vitro ADME. The settings on record: 60 min, given as fraction. How it is done: (§2) Metabolic Stability and Plasma Stability. Test compound Working solution: 5 μL of compound stock solution (10 mM in dimethyl sulfoxide (DMSO)) were diluted with 495 μL of DMSO (Working solution concentration: 100 μM, 100% DMSO). Propantheline bromide Working solution: 5 μL of Propantheline bromide stock solution (10 mM in H2O) were diluted with 495 μL of H2O (Working solution concentration: 100 μM, 100% H2O)
Background: Liver microsomes are a subcellular fraction often used to study metabolism.

Data set [7] can be described thus: Human plasma stability. It is filed as in vitro ADME. The settings on record: both sexes, 37° C., up to 120 min, read-out: Human Plasma Stability T1/2. The protocol: as §2
Human plasma from 3 males and 3 females was obtained. Heparin was used as the anticoagulant. The pooled frozen plasma was thawed in a water bath at 37° C. prior to experiment. Plasma was centrifuged at 4000 rpm for 5 min and the clots were removed if any. Using an Apricot automation workstation, 98 μL/well of blank plasma were added to all 96-well reaction plates. (Blank, T0, T10, T30, T60 and T120). The appointed incubation time points are T0 (0 min), Tn (n=0, 10, 30, 60, 120 min). An Apricot automation workstation was used to add 2 μL/well of working solution (100 μM) to all reaction plates except Blank. (T0, T10, T30, T60 and T120). All reaction plates containing mixtures of compound and plasma were incubated at 37° C. in water bath. The reaction plates were incubated at 37° C., and timer was started. At the end of incubation, 500 μL of stop solution was added and mixed (200 ng/mL tolbutamide and 200 ng/ml labetalol in ACN) to precipitate protein. Each plate was sealed and shaken for 20 minutes. After shaking, each plate was centrifuged at 4000 rpm and 4° C. for 20 minutes. After centrifugation, an Apricot automation workstation was used to transfer 150 μL of supernatant from each reaction plate to its corresponding bioanaylsis plate. Each bioanalysis plate was sealed and shaken for 10 minutes prior to LC-MS/MS analysis. The % remaining of test compound after incubation in plasma was calculated using following equation: Remaining=100×(PAR at appointed incubation time/PAR at T0 time) where PAR is the peak area ratio of analyte versus internal standard (IS).

Data set [8] deals with MDR1-MDCK I cells. Kind of data set: in vitro. As to conditions: dog, MDCK-MDR1, 1.5 h, 2 µM, pH 7.4. The protocol:
(§3) MDCKI MDR1 cell permeability assessment was performed to mimic the blood brain barrier. MDR1-MDCK I cells were seeded onto […] (PET) in 96-well Corning insert systems at 2.5×10^5 cells/mL until to 4-7 days for confluent cell monolayer formation. The transport buffer in the study was HBSS with 10.0 mM HEPES at pH 7.40+0.05. Test compounds were tested at 2.00 μM bi-directionally in duplicate. […] Final DMSO concentration was adjusted to less than 1%. The plate was incubated for 1.5 hours in CO2 incubator at 37±1° C., with 5% CO2 at saturated humidity without shaking. All samples after mixed with acetonitrile containing internal standard were centrifuged at 3220×g for 10 min. For all samples, 150 μL supernatant solution was diluted with 150 μL ultra-pure water for LC-MS/MS analysis. In addition, the efflux ratio of each compound was also determined. Test and reference compounds were quantified by LC-MS/MS analysis based on the peak area ratio of analyte/IS. After transport assay, Lucifer yellow rejection assay are applied to determine the cell monolayer integrity. Buffers are removed from both apical and basolateral chambers, followed by the addition of 75 μL of 100 μM lucifer yellow in transport buffer and 250 μL transport buffer in apical and basolateral chambers, respectively. […] After 30 minutes incubation, 20 μL of lucifer yellow samples are taken from the apical sides, followed by the addition of 60 μL of Transport Buffer. And then 80 μL of lucifer yellow samples are taken from the basolateral sides.
(§4) The apparent permeability coefficient Papp (cm/s) was calculated using the equation: Papp=(dCr/dt)×Vr/(A×C0) where dCr/dt is the cumulative concentration of compound in the receiver chamber as a function of time (μM/s); Vr is the solution volume in the receiver chamber (0.075 mL on the apical side, 0.25 mL on the basolateral side); A is the surface area for the transport, i.e. 0.0804 cm^2 for the area of the monolayer; CO is the initial concentration in the donor chamber (μM). […] Percent of lucifer yellow in basolateral well is calculated using the equation: Where RFUApical and RFUBasolateral are the relative fluorescence unit values of lucifer yellow in the apical and basolateral wells, respectively; VApical and VBasolateral are the volume of apical and basolateral wells (0.075 mL and 0.25 mL), respectively. The % Lucifer Yellow should be less than 1.0.

Data set [9] concerns MDR1. Briefly: in vitro. As to conditions: dog. How it is done: as §3, §4

Chain of hACSS-2 (Q9NR19 whole entry): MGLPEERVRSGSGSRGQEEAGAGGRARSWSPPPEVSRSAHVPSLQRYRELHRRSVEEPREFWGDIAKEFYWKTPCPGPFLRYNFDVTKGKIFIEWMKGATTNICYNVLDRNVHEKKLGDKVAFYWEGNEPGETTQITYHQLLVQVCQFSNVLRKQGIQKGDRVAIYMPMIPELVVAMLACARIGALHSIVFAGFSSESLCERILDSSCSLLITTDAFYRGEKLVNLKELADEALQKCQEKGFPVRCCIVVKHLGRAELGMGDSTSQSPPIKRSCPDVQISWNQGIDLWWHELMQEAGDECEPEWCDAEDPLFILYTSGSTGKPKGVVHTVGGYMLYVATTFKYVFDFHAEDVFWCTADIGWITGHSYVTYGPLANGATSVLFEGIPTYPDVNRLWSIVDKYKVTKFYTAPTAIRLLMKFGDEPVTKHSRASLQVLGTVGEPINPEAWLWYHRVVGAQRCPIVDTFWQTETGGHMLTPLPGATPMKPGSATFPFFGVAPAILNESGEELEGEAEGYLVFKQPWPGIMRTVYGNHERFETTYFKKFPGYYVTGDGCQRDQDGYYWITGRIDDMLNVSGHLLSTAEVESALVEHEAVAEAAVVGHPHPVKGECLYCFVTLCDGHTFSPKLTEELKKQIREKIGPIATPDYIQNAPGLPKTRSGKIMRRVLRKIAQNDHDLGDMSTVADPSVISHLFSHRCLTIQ

In the case of `O=C(CCN1CCCC(c2ccccc2)(c2ccccc2)C1)NC1CC1` [AD-2441], the “reproductive cell death (clonogenicity)” value in [1] is listed as “confirmed”. Also, the “BCBM growth, 4T1-BR” value in [2] is listed as “suppress BCBM growth”. For the same compound, the “BCBM growth, MDA-MB-231-BR” value in data set [3] is “suppress BCBM growth”. The FASN expression levels entry in data set [4] is “downregulates FASN expression levels”.

Consider `N[C@H](C(=O)N1CCCC(c2ccccc2)(c2ccccc2)C1)C1CC1` [AD-8007], for which, in [5] (1:1 binding model, mean, n = 3), the koff – broadly, the rate constant with which the complex falls apart – is 0.547 s⁻¹. Also, the kon – broadly, the second-order rate constant of association – in [5] (1:1 binding model, mean, n = 3) came to 4790 M⁻¹ s⁻¹. Besides, the Kd amounted to 117 µM in data set [5] (Langmuir isotherm equilibrium fit, mean, n = 3, read-out: KD [μM] equilibrium); 149 µM in data set [5] (global fit, mean, n = 3, read-out: KD [μM] kinetic/global); 89 ± 20 µM in data set [5] (read-out: Affinity (KD in μM) for hACSS-2 mean ± SD (n = 3), SPR, one site binding model isotherm, triplicate). The “Human Liver Microsome Stability Remaining(T = 60 min)” value in data set [6] was determined as 0.7723. For the same compound, the “Human Liver Microsome Stability Remaining(NCF = 60 min)” value in data set [6] (NCF) was found to be 0.9563. The half-life at 2 µM in data set [7] was above 289 min. In addition, the “Note (efflux / BBB assessment)” value in [8] was “AD 8007 has a low efflux ratio”. Moreover, the efflux ratio (usually a quotient of directional permeabilities that is used to spot active efflux) at 1.5 h, 2 µM in [9] (MDCK-MDR1, pH 7.4) worked out at 8.96. Further, the recovery at 1.5 h, 2 μM is 81.3% in data set [9] (MDCK-MDR1, pH 7.4, Mean % Solution Recovery A to B) and 97% in [9] (MDCK-MDR1, pH 7.4, Mean % Solution Recovery B to A).
